PMC10820816, “Drug Synergism of Anticancer Action in Combination with Favipiravir and Paclitaxel on Neuroblastoma Cells” (Medicina, 2023)
≈ marks a conversion by molar mass, not a printed value.

Assays:
CYP2C8 = tested on: CYP2C8; set-up: method as in PMID 34339547; conditions: cited from earlier work
[1] = tested on: HDFa healthy cell cultures; test: Hoechst 33258 fluorescent staining and nuclear abnormality analysis; format: cell-based, human; set-up: MN (micronuclei) / Ntc (notched nuclei): unit not given here; conditions: for Abnormality Numbers/1000 Cells / L (lobed nuclei) / MN (micronuclei) / Ntc (notched nuclei): 24 h; for nuclear anomaly change compared to negative control: Hoechst 33258 staining
Protocol: (§1) The human dermal fibroblast cell (HDFa, ATCC® PCS-201-012™) culture was grown in the DMEM medium supplemented with 1% penicillin/streptomycin, 10% FBS and 5% CO2 at a 37 °C temperature until the cultures reached 80% confluency. The human neuroblastoma cell (SH-SY5Y, ATCC® CRL-2266™) line was cultured in DMEM/F12 culture media containing 1% penicillin/streptomycin and 10% fetal bovine serum at 37 °C and 5% CO2. Neuroblastoma cell cultures were incubated to grow up to 80% cell density.
The Hoechst 33258 nuclear staining method was used to monitor abnormalities in the nuclear structures of a healthy HDFa cell culture. Tested drugs were applied to the HDFa cell cultures at various concentrations, and the cell cultures were incubated at 37 °C for 24 h. Then, HDFa cells were fixed by using 4% paraformaldehyde at 4 °C for 30 min. After the incubation period, the cell cultures were washed with PBS two times. A total of 1 µM Hoechst 33258 fluorescent dye was added to the samples and incubated at room temperature for 5 min. Nuclear morphologies were monitored and photographed under a fluorescent microscope (Leica® DM IL LED, Wetzlar, Germany).

[2] = tested on: SHSY-5Y neuroblastoma cells; test: Flow cytometry analysis (FITC Annexin V / PI); format: cell-based, human; conditions: FPV alone 39.06, 19.53, 9.76 µg/mL
Protocol: as §1
(§2) Flow cytometry analysis was performed by using the FITC Annexin V/Dead Cell Apoptosis Kit with FITC Annexin V and PI according to the producer’s recommendations. Further, 5 × 10^4 cells were collected by trypsinization and centrifugation. The cells were resuspended in 500 μL of 1× binding buffer and 5 μL of propidium iodide, and the Annexin V-FITC (50 μg/mL) dyes were added to the cultures and incubated in the dark for 5 min. Finally, the cultures were analyzed via the use of flow cytometry (The CyFlow® Cube 6, Norderstedt, Germany).

[3] = MTT cell viability assay on SH-SY5Y neuroblastoma cells; format: cell-based, human; conditions: human, SH-SY5Y neuroblastoma cells, SHSY-5Y, PTX 10 µg/mL alone
Protocol: as §1
(§3) Cell viability analyses were performed on HDFa and SH-SY5Y by using the 3-(4,5-dimethylthiazol-2-yl)-2,5-diphenyltetrazolium bromide (MTT) technique. Briefly, the compounds were applied to cell cultures at defined concentration intervals (1.65 µg/mL to 100 µg/mL) for 24 h. At the end of the incubation period, 10 µL of the MTT solution ([…]) was added to each culture well, and the samples were incubated at 37 °C for 3 h. Then, the culture mediums were discarded, and 100 µL of DMSO was added to the samples to dissolve formazan crystal to obtain a purple/blue color. A microplate reader was used to measure the color intensities at a 570 nm wavelength.

[4] = tested on: SHSY-5Y neuroblastoma cells; test: as above; format: cell-based, human; conditions: 24 h, p < 0.05
Protocol: as §1, §3

[5] = tested on: human fibroblast (HDFa) cells; test: MTT cell viability assay on human fibroblast (HDFa) cells; format: cell-based; conditions: 24 h, p < 0.05
Protocol: as §1, §3

[6] = Flow cytometry analysis (FITC Annexin V / PI); format: cell-based, human; conditions: human, SH-SY5Y neuroblastoma cells, SHSY-5Y, PTX 10 µg/mL
Protocol: as §1, §2

SMILES: NC(=O)c1nc(F)c[nH]c1=O [FPV, Favipiravir]
- IC50, concentration-dependent inhibitory effect on CYP2C8 (CYP2C8): 74.9 µg/mL (≈ 477 µM)
- Abnormality Numbers/1000 Cells ([1]; FPV 9.7 µg/mL): 0.020 ± 0.008 a
- L (lobed nuclei) ([1]; FPV 9.7 µg/mL): 7
- MN (micronuclei) ([1]; FPV 9.7 µg/mL): 8
- Ntc (notched nuclei) ([1]; FPV 9.7 µg/mL): 5
- Abnormality Numbers/1000 Cells ([1]; FPV 19.5 µg/mL): 0.019 ± 0.016 a
- L (lobed nuclei) ([1]; FPV 19.5 µg/mL): 6
- MN (micronuclei) ([1]; FPV 19.5 µg/mL): 6
- Ntc (notched nuclei) ([1]; FPV 19.5 µg/mL): 7
- Abnormality Numbers/1000 Cells ([1]; FPV 39 µg/mL): 0.019 ± 0.007 a
- L (lobed nuclei) ([1]; FPV 39 µg/mL): 7
- MN (micronuclei) ([1]; FPV 39 µg/mL): 7
- Ntc (notched nuclei) ([1]; FPV 39 µg/mL): 5
- nuclear anomaly change compared to negative control [1]: no significant numerical anomaly change
- change in cell viability [2]: did not cause a significant change in cell viability

SMILES: CC(=O)O[C@H]1C(=O)[C@@]2(C)[C@H]([C@H](OC(=O)c3ccccc3)[C@]3(O)C[C@H](OC(=O)[C@H](O)[C@@H](NC(=O)c4ccccc4)c4ccccc4)C(C)=C1C3(C)C)[C@]1(OC(C)=O)CO[C@@H]1C[C@@H]2O [PTX, Paclitaxel]
- nuclear anomaly change compared to negative control [1]: no significant numerical anomaly change
- Abnormality Numbers/1000 Cells ([1]; PTX 10 µg/mL): 0.019 ± 0.013 a
- L (lobed nuclei) ([1]; PTX 10 µg/mL): 5
- MN (micronuclei) ([1]; PTX 10 µg/mL): 8
- Ntc (notched nuclei) ([1]; PTX 10 µg/mL): 6
- viability at 24 h, 10 µg/mL [3]: 37%
- concentrations causing a significant decrease in cell viability (cytotoxic effect) [4]: ≥ 312.5 ng/mL
- concentrations causing a significant cytotoxic / viability-reducing effect [5]: 10000 ng/mL
- viability at 10 µg/mL [6]: ~37%
